The target in series [1] is T1, KDM4A (Homo sapiens, UniProt O75164).
T1 construct: encoding human KDM4A residues 1–350 with a GST-6xHis tag at the N-terminal; GST-6xHis (followed by TEV cleavage site) (N, cleaved yes); made in house; host or cells: T7 Express E. coli
T1 sequence (O75164 1-350): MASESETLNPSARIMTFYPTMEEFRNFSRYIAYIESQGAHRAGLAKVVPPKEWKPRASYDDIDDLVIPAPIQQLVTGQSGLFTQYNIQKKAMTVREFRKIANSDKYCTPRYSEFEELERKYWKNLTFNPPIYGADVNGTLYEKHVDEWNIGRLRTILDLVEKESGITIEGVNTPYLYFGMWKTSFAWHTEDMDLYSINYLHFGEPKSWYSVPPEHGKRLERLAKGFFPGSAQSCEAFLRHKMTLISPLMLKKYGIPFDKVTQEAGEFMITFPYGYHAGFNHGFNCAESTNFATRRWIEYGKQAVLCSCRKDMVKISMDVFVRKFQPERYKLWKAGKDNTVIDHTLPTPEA
Kind of series: Enzymatic HTRF-based assay, inhibition of H3K9me3 peptide demethylation. It is filed as biochemical. The following applies: for IC50: HTRF, H3K9me3 peptide, 0.5 µM 2-OG, 400 nM KDM4A, ± standard error of fit; for inhibition at 50 µM: read-out: Inhibition at 50 μM. How it is done:
The plasmid pGEX4T2-JMJD2A encoding human KDM4A residues 1–350 with a GST-6xHis tag at the N-terminal, followed by Tobacco Etch Virus (TEV) cleavage site, was used for protein expression. The plasmid was used to transform T7 Express E.coli competent cells. Cells were grown in LB media supplemented with ampicillin (100 µg/mL) at 37 °C until the OD600 reached a value around 0.4. Flasks were then cooled down and, after induction by 0.2 mM ITPG at OD600 = 0.8, bacteria were grown at 18 °C for 20 h. After centrifugation at 8000 g (20 min at 4 °C) the obtained pellets were suspended in lysis buffer (20 mM TRIS pH = 8, 0.3 M NaCl, 10 mM imidazole, 5% glycerol, 1 mM DTT, 10 µg/mL DNAse, 0.5 mg/mL lysozyme, 0.5 mM PMSF, 2 cOmplete™ EDTA-free Protease Inhibitor Cocktail, 5 mM MgCl2) and incubated at 25 °C for 1 h. Sonication (1 s ON and 1 s OFF) on ice for 7 min at 48% amplitude was performed. 0.1% Triton X-100 was added and the lysate was incubated on ice for 15 min in agitation. Soluble and insoluble phase were separated by centrifugation at 15,000 rpm, 4 °C for 30 min. Soluble phase was filtered using a 0.45 um syringe filter and directly loaded in 2 × 5 mL His-trap FF Crude column (GE Healthcare) previously equilibrated with loading buffer (20 mM TRIS, pH = 8, 0.3 M NaCl, 1 mM DTT, 10 mM imidazole, 5% glycerol). A linear gradient elution by 500 mM imidazole was done to elute bound KDM4A. In order to remove the GST-6xHis tag and imidazole excess, the eluted KDM4A was incubated with His-tagged TEV-protease (molar ratio 20:1) and dialyzed against 20 mM TRIS, pH = pH 7.5, 0.3 M NaCl, 1 mM DTT overnight at 4 °C. Tag free KDM4A was recovered reloading the dialyzed sample onto a His-trap column and collecting the flow-through. Size exclusion chromatography was used as final polishing step using a Superdex 200 grade 16/600 pg column (GE Healthcare) pre-equilibrated with 10 mM Hepes, pH = 7.5, 150 mM NaCl, 5% glycerol, 0.5 mM TCEP. Fractions containing KDM4A were pooled and concentrated to 50–100 µM, flash frozen in liquid nitrogen, and stored at − 80 °C. Protein concentration was measured by using the predicted molar extinction coefficient (ε280 = 73,800 M^−1 cm^−1), and the purity verified by SDS-PAGE resulted > 95%.
Enzymatic HTRF-based assay was run in two steps: enzymatic reaction and detection. Optimal conditions for both steps were determined by considering: plate format, time and temperature of incubation, substrate and DMSO concentrations.
Dimethyl sulfoxide (DMSO, Sigma-Aldrich D58791) final concentration was 1%. The reaction mixture was incubated for 2 h at 20 °C in ½ area 96 well plates (ref. 6002290 m, Perkin Elmer).
For the detection step, 40 μl of HTRF reagents, H3K9 me2-Eu(K) Ab (Cisbio Bioassays, 61KB2KAE) and Streptavidin XL-665 (Cisbio Bioassays, 610SAXLA), prepared in detection buffer following manufacturer’s instruction (Cisbio Assays, 62SDBRDD), were added to each well and incubated o/n at 20 °C. Fluorescence was measured with a TECAN Spark reader (Männedorf, Switzerland), by setting excitation wavelength at 320 nm and emission wavelength at 620 and 665 nm.
Automation was performed using Bravo (Agilent) liquid handling system. Validation of the assay was performed following NIH guidelines. 2,4-pyridinedicarboxylic acid monohydrate (2,4-PDCA, Sigma Aldrich P63395) was used as positive control at Imax 10 µM, and Z’ was determined on 9 independent experiments always giving a value > 0.5. The following reference compounds were used as internal controls in the screening plates: 2,4-Pyridinedicarboxylic Acid, 8-hydroxyquinoline-5-carboxylic acid, pyrido[3,4-d]pyrimidin-4(3H)-one, 3-(ethylsulfonyl)-N-(4-(pyridin-2-yl)thiazol-2-yl)benzamide, 3-(ethylsulfonyl)-N-(4-(pyridin-2-yl)thiazol-2-yl)benzamide, 3-(methylsulfonyl)-N-(4-(pyridin-2-yl)thiazol-2-yl)benzamide.

Series [2] deals with T1, KDM4A. Kind of series: Bio-layer interferometry (BLI) binding to biotinylated KDM4A. The following applies: for Kd: BLI, 1:1 Langmuir global fit, 25 °C, 5% DMSO; for LE: ligand efficiency score; for LE / LLE: method of ref 58; for LLE: lipophilic ligand efficiency score. From the text: (§1) Bio-layer interferometry (BLI) was then used to determine the equilibrium dissociation constant (KD) for the binding event. QC6352 inhibitor [52] and N-[(2-Chloro-6-fluorophenyl)methyl]-2-(2,5-dioxo-4-phenyl-4-propylimidazolidin-1-yl)-N-methylacetamide were used as positive and negative control, respectively. […] Binding was also confirmed by Saturation-Transfer Difference (STD) NMR experiments (Additional file 1: Fig. S5).
Bio-layer Interferometry experiments Bio-layer Interferometry was employed to determine the equilibrium dissociation constant (KD) for compounds binding to KDM4A, using a BLI Octet RED96e instrument (Fortebio–Sartorius). Biotinylated KDM4A samples (20 μg/ml) in 10 mM Hepes, pH = 7.5, 150 mM NaCl, 0.5 mM TCEP, 5% glycerol, and 5% DMSO, were loaded onto super streptavidin (SSA) coated biosensors for at least 500 s to saturate the sensors, and then quenched with 10 µg/ml of biocytin for 60 s. Loaded SSA biosensors were then equilibrated in buffer for at least 600 s prior to baseline collection. Association was followed for at least 120 s or until plateau was reached, in a concentration range of 15.6–500 nM for the positive control, and of 3–200 µM for the negative control, and compound 1 and its analogues. Dissociation was followed for at least 300 s. All steps were performed at 25 °C with an agitation speed of 1000 rpm. QC6352 inhibitor [52] and N-[(2-chloro-6-fluorophenyl)methyl]-2-(2,5-dioxo-4-phenyl-4-propylimidazolidin-1-yl)-N-methylacetamide were used as positive and negative control, respectively. Two or three independent experiments were performed for each tested compound.
KD values were estimated by globally fitting the BLI response intensity (nm) as a function of compound concentration (μM) with the Octet Data Analysis Software, using a 1:1 Langmuir binding model.
Biotinylated KDM4A was obtained as follows. 17 nmol of purified recombinant KDM4A was mixed with 17 nmol of NHS-PEG4-Biotin (ThermoFisher Scientific 21,330) in 10 mM Hepes, pH = 7.5, 150 mM NaCl, 0.5 mM TCEP, 5% Glycerol. The solution was incubated at 4 °C for 2 h. Excess biotin was removed by 2 ml Zeba™ Spin Desalting Columns (7 K MWCO).

Series [3] deals with T1, KDM4A. Kind of series: STD-NMR binding experiment. The following applies: 1:50 receptor-to-ligand ratio, 7.5 µM KDM4A. The procedure:
as §1
STD-NMR experiments STD-NMR spectra were recorded at 800 MHz on Bruker spectrometer and 298 K in 20 mM NaPh, pH = 7.5, 150 mM NaCl, 0.5 mM TCEP, 8% D2O, using 7.5 µM of KDM4A and 20- or 50-fold excess of each compound. A series of Gaussian-shaped pulses of 0.025 s each was employed with a total saturation time for the protein envelope of 2 s. Off-resonance frequency of d = − 40 ppm and on-resonance frequency of d = 0.07 ppm (protein aliphatic signals region) were applied. Spectra were processed and analyzed using Bruker TopSpin software.
Suppl. Fig. S5: STD-NMR analysis of compound 1. […] (i) The 1D NMR reference spectrum of compound 1. (ii) The STD-NMR spectrum of compound 1 in the presence of KDM4A. The NMR spectrum was recorded at 1:50 receptor-to-ligand ratio.

Substrate in series [4]: O=C(O)CCC(=O)C(=O)O
Put plainly: purified protein, by the assay type. The following applies: other: 2-OG titrated 50 µM to 0.01 µM, Michaelis-Menten plot.

Values joined by “and” are separate entries in the source; they are usually repeats but may differ in a detail not shown here. Equal entries are not always repeated. Bounds are passed on as bounds.

As for `CNC(=O)c1cc(C(=O)O)ccn1` [Compound 1, 2-(methylcarbamoyl)isonicotinic acid], the concentration for half-maximal inhibition (IC50) at KDM4A [1] is 7.09 µM and 7.1 µM. On KDM4A [2], this molecule showed a Kd of 15 ± 0.16 µM, an LE of 0.51 and an LLE of 4.59. The “Binding to KDM4A by STD-NMR” value on KDM4A [3] is recorded as “detected compound 1 binding to KDM4A”.

`O=C(O)c1ccnc(C(=O)NCc2ccccc2)c1` [Compound 6a, 2-(benzylcarbamoyl)isonicotinic acid]: the inhibition at 50 µM on KDM4A [1] is under 50%. At KDM4A [2], this molecule yielded a Kd of 45 ± 1 µM, an LE of 0.33 and an LLE of 2.49.

`O=C(O)c1ccnc(C(=O)NCc2cnco2)c1` [Compound 6b, 2-((Oxazol-5-ylmethyl)carbamoyl)isonicotinic acid]: on KDM4A [1], the IC50 is 25.1 µM and 25 µM; the inhibition at 50 µM was over 90%. At KDM4A [2], this molecule yielded a dissociation constant Kd of 9.5 ± 0.08 µM, an LE of 0.39 and an LLE of 4.50.

With `CCCNC(=O)c1cc(C(=O)O)ccn1` [Compound 6c, 2-(Propylcarbamoyl)isonicotinic acid], at KDM4A [1], the IC50 was 41.6 µM and the inhibition at 50 µM is over 90%. Also, on KDM4A [2], the dissociation constant (Kd) was 10.7 ± 0.2 µM, the LE was 0.48 and the LLE is recorded as 4.18.

For `COC(=O)c1ccnc(C(=O)NCc2ccccc2)c1` [Compound 5a, Methyl 2-(benzylcarbamoyl)isonicotinate], the inhibition at 50 µM on KDM4A [1] is under 50%.

As for `COC(=O)c1ccnc(C(=O)NCc2nc3ccccc3n2C)c1` [Compound 5d, Methyl 2-(((1-methyl-1H-benzo[d]imidazole-2-yl)methyl)carbamoyl)isonicotinate], the inhibition at 50 µM on KDM4A [1] is under 50%. At KDM4A [2], this molecule displayed an equilibrium dissociation constant (Kd) of 55 ± 2 µM, an LE of 0.24 and an LLE of 1.88.

B1: KDM4A (Homo sapiens) (protein)
chain: MASESETLNPSARIMTFYPTMEEFRNFSRYIAYIESQGAHRAGLAKVVPPKEWKPRASYDDIDDLVIPAPIQQLVTGQSGLFTQYNIQKKAMTVREFRKIANSDKYCTPRYSEFEELERKYWKNLTFNPPIYGADVNGTLYEKHVDEWNIGRLRTILDLVEKESGITIEGVNTPYLYFGMWKTSFAWHTEDMDLYSINYLHFGEPKSWYSVPPEHGKRLERLAKGFFPGSAQSCEAFLRHKMTLISPLMLKKYGIPFDKVTQEAGEFMITFPYGYHAGFNHGFNCAESTNFATRRWIEYGKQAVLCSCRKDMVKISMDVFVRKFQPERYKLWKAGKDNTVIDHTLPTPEA
As to B1, the Km in series [4] came out at 0.73 ± 0.16 µM.

Values taken from PMC10740270, “In-silico guided chemical exploration of KDM4A fragments hits” (Clinical Epigenetics, 2023).
